Assays:
CDK2 [1] = biological target: CDK2 (UniProt P24941); assay: Enzyme Assay
CDK2 [2] = biological target: CDK2 (UniProt P24941); assay: Enzyme Assay; remark: listed apart in the source
MAPK14 = MAPK14 (UniProt Q16539); assay: Inhibition of MAPK14 Kinase Activity; settings: concentration not given here
ROCK2 = ROCK2 (UniProt O75116); assay: Inhibition of ROCK2 Kinase Activity; settings: concentration not given here
ROCK2, sequence (O75116 whole entry, looked up): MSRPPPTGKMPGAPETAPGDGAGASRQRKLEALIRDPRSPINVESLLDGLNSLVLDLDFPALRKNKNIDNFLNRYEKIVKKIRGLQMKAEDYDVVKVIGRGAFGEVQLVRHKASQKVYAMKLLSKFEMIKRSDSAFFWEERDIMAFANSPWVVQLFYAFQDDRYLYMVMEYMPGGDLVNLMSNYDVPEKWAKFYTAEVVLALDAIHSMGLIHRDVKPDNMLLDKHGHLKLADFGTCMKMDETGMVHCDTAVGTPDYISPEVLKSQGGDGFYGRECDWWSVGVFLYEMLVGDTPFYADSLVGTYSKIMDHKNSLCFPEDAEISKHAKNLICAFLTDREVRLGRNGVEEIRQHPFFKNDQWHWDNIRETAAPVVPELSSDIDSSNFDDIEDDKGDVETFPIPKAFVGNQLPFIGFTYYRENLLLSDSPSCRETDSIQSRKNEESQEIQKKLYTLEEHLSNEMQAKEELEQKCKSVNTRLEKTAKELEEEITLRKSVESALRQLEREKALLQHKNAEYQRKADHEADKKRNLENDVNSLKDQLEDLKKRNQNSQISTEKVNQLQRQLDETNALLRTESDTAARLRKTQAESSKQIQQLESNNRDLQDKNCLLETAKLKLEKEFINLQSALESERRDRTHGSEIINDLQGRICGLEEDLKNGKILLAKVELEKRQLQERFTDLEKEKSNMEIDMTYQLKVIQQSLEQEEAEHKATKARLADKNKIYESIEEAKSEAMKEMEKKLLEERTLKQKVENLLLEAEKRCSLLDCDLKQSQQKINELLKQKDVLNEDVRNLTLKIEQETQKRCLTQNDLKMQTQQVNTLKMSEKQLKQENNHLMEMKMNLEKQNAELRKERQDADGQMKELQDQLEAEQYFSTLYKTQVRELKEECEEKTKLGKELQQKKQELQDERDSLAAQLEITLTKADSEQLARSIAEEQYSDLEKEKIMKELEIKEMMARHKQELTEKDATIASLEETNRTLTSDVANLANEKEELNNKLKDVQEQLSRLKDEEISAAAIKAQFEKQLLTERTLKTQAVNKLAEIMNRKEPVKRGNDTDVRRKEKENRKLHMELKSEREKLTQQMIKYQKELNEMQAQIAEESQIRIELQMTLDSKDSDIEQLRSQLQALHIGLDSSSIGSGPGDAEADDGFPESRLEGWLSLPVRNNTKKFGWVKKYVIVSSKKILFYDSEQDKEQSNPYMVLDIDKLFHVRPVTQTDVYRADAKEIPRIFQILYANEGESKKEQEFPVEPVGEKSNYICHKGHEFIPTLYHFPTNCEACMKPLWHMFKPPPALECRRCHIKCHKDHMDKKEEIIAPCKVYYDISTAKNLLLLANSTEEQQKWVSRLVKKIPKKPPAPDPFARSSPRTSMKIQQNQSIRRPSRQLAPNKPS

MAPK14, sequence (Q16539 whole entry, looked up): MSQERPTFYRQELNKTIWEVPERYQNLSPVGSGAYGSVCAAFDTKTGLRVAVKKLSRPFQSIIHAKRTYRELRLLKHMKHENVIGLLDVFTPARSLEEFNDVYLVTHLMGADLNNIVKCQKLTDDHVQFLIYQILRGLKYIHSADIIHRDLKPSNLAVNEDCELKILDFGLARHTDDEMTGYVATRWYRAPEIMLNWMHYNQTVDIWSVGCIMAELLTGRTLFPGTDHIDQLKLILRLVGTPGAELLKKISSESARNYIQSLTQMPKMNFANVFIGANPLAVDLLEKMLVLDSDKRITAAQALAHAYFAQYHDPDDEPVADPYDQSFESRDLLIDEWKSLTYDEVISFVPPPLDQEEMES

| IC50 (CDK2 [1]) | IC50 (CDK2 [2]) | Ki (CDK2 [1]) | Ki (CDK2 [2]) | inhibition (MAPK14) | inhibition (ROCK2) | SMILES |
| --- | --- | --- | --- | --- | --- | --- |
| > 1 µM | > 10 µM |  |  |  |  | COc1ccc(Nc2nccc(-c3nc(C)c(C)s3)n2)cn1 |
| 11 µM | > 50 µM | 5.5 µM | > 50 µM | 16% | 13% | Clc1ccc(Nc2nccc(-c3nccs3)n2)cn1 |
| > 10 µM | > 10 µM |  |  |  |  | Cc1nc(-c2ccnc(Nc3ccc(Cl)nc3)n2)sc1C |
| > 1 µM | > 10 µM |  |  |  |  | CCOC(=O)c1sc(-c2ccnc(Nc3ccc(Cl)cc3)n2)nc1O |
| > 50 µM | > 100 µM |  |  |  |  | COc1ccc(Nc2nccc(-c3nccs3)n2)cn1 |

From the Kinase Knowledgebase extract (Sharma et al. 2016)
